Results: patent US8188098B2, “GPR119 receptor agonists” (Hoffmann-La Roche Inc., priority 2008, dated 2012)

Molecular target: T1, GPR119 receptor (Mesocricetus auratus, UniProt A0A1U8CD06)
T1 construct: which endogenously express the GPR119 receptor; host or cells: HIT-T15 hamster pancreatic islet cells
T1 sequence (A0A1U8CD06 1-334): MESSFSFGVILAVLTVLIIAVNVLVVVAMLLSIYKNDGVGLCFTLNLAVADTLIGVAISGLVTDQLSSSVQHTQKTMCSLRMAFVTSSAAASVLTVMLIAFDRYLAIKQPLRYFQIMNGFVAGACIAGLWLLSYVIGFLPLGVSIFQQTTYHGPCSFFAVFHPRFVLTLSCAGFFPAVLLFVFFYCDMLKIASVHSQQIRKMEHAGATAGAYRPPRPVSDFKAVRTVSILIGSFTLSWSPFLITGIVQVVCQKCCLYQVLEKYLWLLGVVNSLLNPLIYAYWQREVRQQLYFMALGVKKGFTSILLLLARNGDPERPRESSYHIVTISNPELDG
Experiment: cAMP assay in HIT-T15 hamster pancreatic islet cells (functional agonist activity)
Assay type: cell-based
Settings: HIT-T15 cells endogenously expressing GPR119; 30 min at 25° C.; intracellular cAMP
Method: The functional agonist activities of compounds of the invention were characterized using a cAMP assay in HIT-T15 hamster pancreatic islet cells (American Type Culture Collection, Manassas, Va., USA) which endogenously express the GPR119 receptor. The cells were cultured in Kaighn's modification of Ham's F12 medium (Invitrogen Corporation, Carlsbad, Calif., USA) containing 10% horse serum, 2.5% FBS, and 1% Pen/Strep and grown in 225 cm^2 tissue culture flasks until they reached 75-85% confluence.
The cells were harvested 24 h prior to assay with 5 ml Versene®, washed with Kaighn/F12 medium and then plated into white 384-well plates (9000 cells/well) containing Kaighn/F12 medium. Prior to assay, the culture medium was replaced with a Kaighn/F12 medium without phenol red (50 μL/well) containing 0.5 mM 3-isobutyl-1-methylxanthine, 0.5 mg/ml BSA. The cells were incubated in the dark for 30 min at 25° C. in the absence or presence of varying concentrations of agonist (1 μL, 100% DMSO). The incubation media was discarded and replaced with the assay lysis buffer (50 μL/well) provided in the Tropix cAMP-Screen® kit (Applied Biosystems, Foster City, Calif., USA) and the plates incubated for 45 min at 37° C. The intracellular levels of cAMP generated in the HIT-T 15 cells were measured using the Tropix kit. In brief, 20 μL of the lysate was transferred into pre-coated antibody plates (384-well; Tropix kit) along with 10 μL of alkaline phosphatase conjugate and 20 μL of anti-cAMP antibody and the plates were incubated for 1 h at room temperature while shaking. The plates were then washed 5 times with wash buffer (70 μL) and tapped dry. CSPD®/Sapphire-II™ RTU substrate/enhancer solution (Applied Biosystems, Foster City, Calif., USA; 30 μL) was added and the plates were incubated for 45 min at room temperature while shaking. The signal generated was measured using a Wallac Victor V Luminometer (PerkinElmer Life And Analytical Sciences, Inc., Waltham, Mass., USA; 1 sec/well). EC50 values were calculated using the XLFit program (ID Business Solutions Ltd., Guildford, Surrey, UK).

EC50 [µM] | Compound
0.89 | COc1ccc(Oc2ncnc3c2cnn3C2CCN(C(=O)OC(C)(C)C)CC2)c(OC)n1 [Example 95, 4-[4-(2,6-Dimethoxy-pyridin-3-yloxy)-pyrazolo[3,4-d]pyrimidin-1-yl]-piperidine-1-carboxylic acid tert-butyl ester]
0.068 | CC(C)c1noc(N2CCC(n3ncc4c(Oc5ccc(S(C)(=O)=O)cc5F)ncnc43)CC2)n1 [Example 127, 4-(2-Fluoro-4-methanesulfonyl-phenoxy)-1-[1-(3-isopropyl-[1,2,4]oxadiazol-5-yl)-piperidin-4-yl]-1H-pyrazolo[3,4-d]pyrimidine]
0.16 | CS(=O)(=O)c1ccc(Oc2ncnc3c2cnn3C2CCN(C(=O)c3nc4ccccc4s3)CC2)cc1 [Example 156, Benzothiazol-2-yl-{4-[4-(4-methanesulfonyl-phenoxy)-pyrazolo[3,4-d]pyrimidin-1-yl]-piperidin-1-yl}-methanone]
0.028 | Cc1nc(Oc2ccc(S(C)(=O)=O)cc2)c2cnn(C3CCN(C(=O)OC(C)(C)C)CC3)c2n1 [Example 175, 4-[4-(4-Methanesulfonyl-phenoxy)-6-methyl-pyrazolo[3,4-d]pyrimidin-1-yl]-piperidine-1-carboxylic acid tert-butyl ester]
0.2 | CC(C)(C)OC(=O)N1CCC(n2ncc3c(Oc4cccnc4C#N)ncnc32)CC1 [Example 99, 4-[4-(2-Cyano-pyridin-3-yloxy)-pyrazolo[3,4-d]pyrimidin-1-yl]-piperidine-1-carboxylic acid tert-butyl ester]
0.49 | CC(C)(C)OC(=O)N1CCC(n2ncc3c(Oc4ccc(-c5ccsc5)cc4)ncnc32)CC1 [Example 86, 4-[4-(4-Thiophen-3-yl-phenoxy)-pyrazolo[3,4-d]pyrimidin-1-yl]-piperidine-1-carboxylic acid tert-butyl ester]
0.57 | Cc1ncccc1Oc1ncnc2c1cnn2C1CCN(C(=O)OC2CCCCC2)CC1 [Example 125, 4-[4-(2-Methyl-pyridin-3-yloxy)-pyrazolo[3,4-d]pyrimidin-1-yl]-piperidine-1-carboxylic acid cyclohexyl ester]
0.57 | CS(=O)(=O)c1ccc(Oc2ncnc3c2cnn3C2CCN(Cc3ccc(Cl)cc3)CC2)cc1 [Example 160, 1-[1-(4-Chloro-benzyl)-piperidin-4-yl]-4-(4-methanesulfonyl-phenoxy)-1H-pyrazolo[3,4-d]pyrimidine]
0.12 | CS(=O)(=O)c1ccc(Oc2ncnc3c2cnn3C2CCN(Cc3cccc(OC(F)(F)F)c3)CC2)cc1 [Example 162, 4-(4-Methanesulfonyl-phenoxy)-1-[1-(3-trifluoromethoxy-benzyl)-piperidin-4-yl]-1H-pyrazolo[3,4-d]pyrimidine]
0.26 | Cc1ncccc1Oc1ncnc2c1cnn2C1CCN(C(=O)OC2CCCC2)CC1 [Example 121, 4-[4-(2-Methyl-pyridin-3-yloxy)-pyrazolo[3,4-d]pyrimidin-1-yl]-piperidine-1-carboxylic acid cyclopentyl ester]
0.05 | CC(C)(OC(=O)N1CCC(n2ncc3c(Oc4ccc(S(C)(=O)=O)cc4)ncnc32)CC1)C(F)(F)F [Example 111, 4-[4-(4-Methanesulfonyl-phenoxy)-pyrazolo[3,4-d]pyrimidin-1-yl]-piperidine-1-carboxylic acid 2,2,2-trifluoro-1,1-dimethyl-ethyl ester]
0.42 | CS(=O)(=O)c1ccc(Oc2ncnc3c2cnn3C2CCN(C(=O)C3CCCC3)CC2)cc1 [Example 141, Cyclopentyl-{4-[4-(4-methanesulfonyl-phenoxy)-pyrazolo[3,4-d]pyrimidin-1-yl]-piperidin-1-yl}-methanone]
0.24 | Cc1ncccc1Oc1ncnc2c1cnn2C1CCN(C(=O)OCc2ccccc2)CC1 [Example 124, 4-[4-(2-Methyl-pyridin-3-yloxy)-pyrazolo[3,4-d]pyrimidin-1-yl]-piperidine-1-carboxylic acid benzyl ester]
3.4 | CCc1cc(Oc2ncnc3c2cnn3C2CCN(C(=O)OC(C)(C)C)CC2)nc(C)n1 [Example 103, 4-[4-(6-Ethyl-2-methyl-pyrimidin-4-yloxy)-pyrazolo[3,4-d]pyrimidin-1-yl]-piperidine-1-carboxylic acid tert-butyl ester]
0.036 | CS(=O)(=O)c1ccc(Oc2ncnc3c2cnn3C2CCN(Cc3ccc(C(F)(F)F)cc3)CC2)cc1 [Example 161, 4-(4-Methanesulfonyl-phenoxy)-1-[1-(4-trifluoromethyl-benzyl)-piperidin-4-yl]-1H-pyrazolo[3,4-d]pyrimidine]
3 | Cc1cc(=O)oc2cc(Oc3ncnc4c3cnn4C3CCN(C(=O)OC(C)(C)C)CC3)ccc12 [Example 76, 4-[4-(4-Methyl-2-oxo-2H-chromen-7-yloxy)-pyrazolo[3,4-d]pyrimidin-1-yl]-piperidine-1-carboxylic acid tert-butyl ester]

Second part, the compound before the results:

Compound | EC50 [µM]
CC(C)(C)OC(=O)N1CCC(n2ncc3c(Nc4cc(F)c(F)cc4F)ncnc32)CC1 [Example 4, 4-[4-(2,4,5-Trifluoro-phenylamino)-pyrazolo[3,4-d]pyrimidin-1-yl]-piperidine-1-carboxylic acid tert-butyl ester] | 0.53
CS(=O)(=O)c1ccc(Nc2ncnc3c2cnn3C2CCN(Cc3ccccc3)CC2)c(F)c1 [Example 11, [1-(1-Benzyl-piperidin-4-yl)-1H-pyrazolo[3,4-d]pyrimidin-4-yl]-(2-fluoro-4-methanesulfonylphenyl)-amine] | 2.5
Cc1nc(S(C)(=O)=O)ccc1Nc1ncnc2c1cnn2C1CCN(C(=O)OC(C)(C)C)CC1 [Example 8, 4-[4-(6-Methanesulfonyl-2-methyl-pyridin-3-ylamino)-pyrazolo[3,4-d]pyrimidin-1-yl]-piperidine-1-carboxylic acid tert-butyl ester] | 0.76
CC(C)OC(=O)N1CCC(n2ncc3c(Oc4ccc(=O)n(C)n4)ncnc32)CC1 [Example 31, 4-[4-(1-Methyl-6-oxo-1,6-dihydro-pyridazin-3-yloxy)-pyrazolo[3,4-d]pyrimidin-1-yl]-piperidine-1-carboxylic acid isopropyl ester] | 3.5
CC(C)(C)OC(=O)N1CCC(n2ncc3c(N4CCc5cc(S(C)(=O)=O)ccc54)ncnc32)CC1 [Example 10, 4-[4-(5-Methanesulfonyl-2,3-dihydro-indol-1-yl)-pyrazolo[3,4-d]pyrimidin-1-yl]-piperidine-1-carboxylic acid tert-butyl ester] | 0.46
CC(=O)c1ccc(Oc2ncnc3c2cnn3C2CCN(C(=O)OC(C)(C)C)CC2)cc1C [Example 65, 4-[4-(4-Acetyl-3-methyl-phenoxy)-pyrazolo[3,4-d]pyrimidin-1-yl]-piperidine-1-carboxylic acid tert-butyl ester] | 0.31
Cc1nnnn1-c1ccc(Oc2ncnc3c2cnn3C2CCN(C(=O)OC(C)C)CC2)cc1 [Example 26, 4-{4-[4-(5-Methyl-tetrazol-1-yl)-phenoxy]-pyrazolo[3,4-d]pyrimidin-1-yl}-piperidine-1-carboxylic acid isopropyl ester] | 0.95
COc1ccc(Oc2ncnc3c2cnn3C2CCN(C(=O)OC(C)(C)C)CC2)cc1 [Example 39, 4-[4-(4-Methoxy-phenoxy)-pyrazolo[3,4-d]pyrimidin-1-yl]-piperidine-1-carboxylic acid tert-butyl ester] | 0.72
CC(=O)Nc1ccc(Oc2ncnc3c2cnn3C2CCN(C(=O)OC(C)(C)C)CC2)cc1 [Example 70, 4-[4-(4-Acetylamino-phenoxy)-pyrazolo[3,4-d]pyrimidin-1-yl]-piperidine-1-carboxylic acid tert-butyl ester] | 0.14
CC(C)(C)OC(=O)N1CCC(n2ncc3c(Oc4cc(F)c(F)cc4C#N)ncnc32)CC1 [Example 50, 4-[4-(2-Cyano-4,5-difluoro-phenoxy)-pyrazolo[3,4-d]pyrimidin-1-yl]-piperidine-1-carboxylic acid tert-butyl ester] | 0.69
CC(C)(C)OC(=O)N1CCC(n2ncc3c(Oc4ccc([N+](=O)[O-])cc4F)ncnc32)CC1 [Example 66, 4-[4-(2-Fluoro-4-nitro-phenoxy)-pyrazolo[3,4-d]pyrimidin-1-yl]-piperidine-1-carboxylic acid tert-butyl ester] | 0.75
